# Substitutions are numbered along the chain they refer to. In names and notes the source's numbering stands. Entries after “also recorded” stand apart in the source; their conditions may differ.
# B1: Ig3: recombinant Ig3 module of rat NCAM, residues 191-289, produced in P. pastoris (protein)
# chain: EAEAYGRILARGEINFKDIQVIVNVPPTVQARQSIVNATANLGQSVTLVCDADGFPEPTMSWTKDGEPIENEEEDDEKHIFSDDSSELTIRNVDKNDEAEYVCI
# B2: Ig3mut1: Ig3 mutant with substitutions R198A, D249G, E287A (E253A) (protein)
# chain: B1 chain with R32A, D83G, E87A
# B3: Ig1-2-3: recombinant Ig1-2-3 fragment of rat NCAM, residues 1-289 (protein)
# chain: RVLQVDIVPSQGEISVGESKFFLCQVAGDAKDKDISWFSPNGEKLSPNQQRISVVWNDDDSSTLTIYNANIDDAGIYKCVVTAEDGTQSEATVNVKIFQKLMFKNAPTPQEFKEGEDAVIVCDVVSSLPPTIIWKHKGRDVILKKDVRFIVLSNNYLQIRGIKKTDEGTYRCEGRILARGEINFKDIQVIVNVPPTVQARQSIVNATANLGQSVTLVCDADGFPEPTMSWTKDGEPIENEEEDDEKHIFSDDSSELTIRNVDKNDEAEYVCIAENKAGEQDASIHLKVFAK
# modifications: rat NCAM fragment amino acid residues 20-308 and cloning artifacts
# B4: Ig1-2-3mut: Ig1-2-3 mutant containing the substitutions E11A, E16A, and K18A (protein)
# chain: B3 chain with E13A, E18A, K20A
# What was measured:
# [1] = test system: cerebellar granule neurons (CGN); assay: Neurite outgrowth of CGN in co-culture with fibroblasts with (LBN) or without (LVN) NCAM expression; type: cell-based, rat; details: for NCAM-dependent neurite outgrowth of CGN in co-cultures of CGN and LBN-cells: fibroblasts with NCAM expression (LBN); for NCAM-independent neurite outgrowth of CGN in both cultures: single-neuron primary culture 24 h and co-culture with fibroblasts
# Experimental: (§1) Cerebellar granule neurons (CGN) were prepared from Wistar rat pups of postnatal day 3. Cerebellar tissue was dissected in modified Krebs-Ringer solution kept on ice, and treated as described for the hippocampal neurons above. All cell cultures were incubated at 37° C. in a humidified atmosphere containing 5% CO2. All animals were handled in accordance with the national guidelines for animal welfare. Primary cultures of CGN were plated at a density of 100,000 cells/cm^2 on poly-L-lysine coated 8-well permanox slides in Neurobasal-A medium (Gibco, BRL) supplemented with 2% (v/v) B27, 0.5% (v/v) glutamax, 100 U/ml penicillin, 100 μg/ml streptomycin and KCl, making the final concentration of KCl in the medium 40 mM. 24 hours after plating, cytosine-β-D-arabinofuranoside (Ara-C; Sigma-Aldrich) was added to a final concentration of 10 μM to avoid proliferation of glial cells, after which the neurons were allowed to differentiate for further six days at 37° C.
# (§2) Ig3 wt, Ig3mut1, and Ig3mut2 were tested at a concentration of 500 μg ml^−1.
# (§3) To evaluate the length of neurites of CGN, the neurons were fixed after 24 hours in culture with 4% (v/v) formaldehyde for 20 minutes and thereafter immunostained using primary rabbit antibodies against GAP-43 and Alexa Fluor secondary goat anti-rabbit antibodies. Images of at least 200 neurons for each group in each individual experiment were obtained systematically by using computer assisted fluorescence microscopy
# (§4) The total neurite length per cell was analyzed using the software ProcessLength (Rønn et al., 2000). Five independent experiments with the Ig3 module, its mutants, and the individual peptides were performed. In each experiment neurites from 200-300 cells were analyzed. In order to compare results of individual experiments and due to the inherently high variability of cell experiments, the data were normalized setting the difference between the average neurite length of PC12-E2 cells grown on NCAM-140-transfected and vector-transfected fibroblasts to 100%. Statistical evaluations were performed using a two-sided Student's t-test.
# [2] = test system: cerebellar granule neurons (CGN); assay: Neurite outgrowth of CGN grown as single neurons in primary culture; type: cell-based, rat; details: 24 h, different concentrations of the peptide in growth media
# Experimental: as §1, §3, §4
# [3] = test system: cerebellar granule neurons (CGN); assay: Neurite outgrowth of CGN in co-culture with fibroblasts with (LBN) or without (LVN) NCAM expression; type: cell-based, rat; details: co-cultures of PC12-E2 or CGN cells with fibroblasts expressing NCAM; cell type not specified
# [4] = test system: NCAM-expressing PC12-E2 cells; assay: Neurite outgrowth of PC12-E2 cells grown on a confluent monolayer of NCAM-140- or vector-transfected L929 fibroblasts; type: cell-based; details: co-culture 24 h; for NCAM-induced neurite outgrowth of PC12-E2 cells grown on NCAM-140-transfected (LBN) fibroblasts: Ig3 wt, Ig3mut1, Ig3mut2 at 500 μg ml^−1
# Experimental: The NCAM-expressing pheochromocytoma PC12-E2 cell line (Wu and Bradshaw, 1995) was a gift from Dr. Klaus Seedorf, Hagedorn Research Institute, Denmark. The cells were grown in Dulbecco's Modified Eagle's Medium (DMEM) supplemented with 5% v/v fetal calf serum (FCS) and 10% v/v horse serum (HS), 100 U ml^−1 penicillin, 100 μg ml^−1 streptomycin (all from Gibco BRL) at 37° C. in a humidified atmosphere containing 5% CO2.
# The fibroblastoid mouse cell line, L929 (European Cell Culture Collection), was stably transfected with the eukaryotic expression vector pHβ-Apr-1-neo (Gunning et al., 1987) containing a full-length cDNA encoding human 140 kDa NCAM-B or the vector alone. […] The cells were routinely grown at 37° C., 5% CO2 in DMEM supplemented with 10% v/v FCS, 100 U ml^−1 penicillin, and 100 μg ml^−1 streptomycin. For analysis of neurite outgrowth, PC12-E2 cells (8,000 cells per well) were seeded on top of a confluent monolayer of transfected fibroblastoid L929 cells in four-well LabTek Tissue Culture Chamber Slides (NUNC). The cells were grown for 24 h in DMEM supplemented with 1% v/v HS, before analysis.
# as §2
# To evaluate the length of processes of PC12-E2 cells, the co-cultures were fixed in 4% w/v paraformaldehyde for 25 min. After washing in PBS, cells were blocked with 10% v/v goat serum (DAKO) for 30 min and subsequently incubated for 1 h at room temperature with a mouse monoclonal anti-Thy-1 antibody (Caltag Laboratories) (1:100 in PBS containing 10% v/v goat serum). After washing, cells were incubated for 1 h at room temperature with Alexa-Fluor 568™ goat anti-mouse IgG (Molecular Probes) (1:1000 in PBS containing 10% goat serum). All washes were performed for 10 min in PBS, and repeated three times.
# as §4
# [5] = test system: NCAM-mediated cell aggregation; details: Soroka et al., 2002; cited from earlier work
# [6] = Dynamic light scattering (DLS) of recombinant proteins in solution; type: physicochemical; details: deglycosylated protein, 4 mg ml^−1, PBS pH 7.4, 18° C.
# Experimental: Measurements were performed using a DynaPro-MS/X instrument (Protein Solutions) at 18° C. The deglycosylated preparations of Ig1-2-3 (4 mg ml^−1), Ig1-2-3mut (4 mg ml^−1) and Ig3 (10 mg ml^−1) in PBS pH 7.4 were used to determine the molecular weight of the recombinant proteins in solution.
molecule,measurement,setting,value
"AFSPNGEKLSPNQ (H-AFSPNGEKLSPNQ-NH2) [P1-CD, represents the Ig1-to-Ig3 contact]",NCAM-dependent neurite outgrowth of CGN in co-cultures of CGN and LBN-cells,[1],inhibits; also recorded: capable modulating
same,NCAM-independent neurite outgrowth of CGN in both cultures,[1],does not affect
same,neurite outgrowth (differentiation) of single CGN in primary culture,[2],did not stimulate
"DVRRGIKKTD (H-DVRRGIKKTD-NH2) [P2-CD, represents the Ig2-to-Ig3 contact, Ig2 module]",NCAM-stimulated neurite outgrowth in co-cultures,[3],did not affect
same,neurite outgrowth (differentiation) of single CGN in primary culture,[2],very capable stimulators
"GEISVGESKFFL (H-GEISVGESKFFL-NH2) [P1-B, covers the B β-strand of Ig1, represents the Ig1-to-Ig2 contact]",NCAM-induced neurite outgrowth of PC12-E2 cells grown on NCAM-140-transfected (LBN) fibroblasts,[4],inhibitory effects comparable to the effect of Ig3 wt; also recorded: inhibited
GRILARGEINFK (rat NCAM Ig2 fragment amino acid residues 172-182) [P2 peptide],effect on cell aggregation,[5],inhibitory effect
"KHIFSDDSSELTIRNVDKNDE (H-KHIFSDDSSELTIRNVDKNDE-NH2) [P3-DE, covers D and E β-strands and E-F loop of the Ig3 module]",NCAM-induced neurite outgrowth of PC12-E2 cells grown on NCAM-140-transfected (LBN) fibroblasts,[4],inhibitory effects comparable to the effect of Ig3 wt; also recorded: inhibited
"QEFKEGEDAVIV (H-QEFKEGEDAVIV-NH2) [P2-A′B, represents the Ig2-to-Ig2 contact]",NCAM-dependent neurite outgrowth of CGN in co-cultures of CGN and LBN-cells,[1],inhibits; also recorded: capable modulating
same,NCAM-independent neurite outgrowth of CGN in both cultures,[1],does not affect
same,neurite outgrowth (differentiation) of single CGN in primary culture,[2],did not stimulate
"QIRGIKKTD (H-QIRGIKKTD-NH2) [P2-EF, represents the Ig2-to-Ig3 contact, Ig2 module]",NCAM-stimulated neurite outgrowth in co-cultures,[3],did not affect
same,neurite outgrowth (differentiation) of single CGN in primary culture,[2],very capable stimulators
"SIHLKVFAK (H-SIHLKVFAK-NH2) [P3-G, C-terminal part of the G β-strand of Ig3]",NCAM-stimulated neurite outgrowth in co-cultures,[3],did not affect
same,NCAM-induced neurite outgrowth of PC12-E2 cells grown on NCAM-140-transfected (LBN) fibroblasts,[4],inhibitory effects comparable to the effect of Ig3 wt; also recorded: inhibited
same,neurite outgrowth (differentiation) of single CGN in primary culture,[2],very capable stimulators
"TLVADADGFPEP (H-TLVADADGFPEP-NH2) [P3-B, control peptide covering the B β-strand and B-C loop of the Ig3 module, reference compound]",NCAM-induced neurite outgrowth of PC12-E2 cells grown on NCAM-140-transfected (LBN) fibroblasts,[4],not active
B1,NCAM-induced neurite outgrowth of PC12-E2 cells grown on NCAM-140-transfected (LBN) fibroblasts,[4],clearly inhibits
same,NCAM-induced neurite outgrowth of PC12-E2 cells grown on NCAM-140-transfected (LBN) fibroblasts,[4]; listed as Ig3 wt,inhibitory effect
same,neurite outgrowth of PC12-E2 cells grown on vector-transfected (LVN) fibroblasts,[4]; NCAM-negative fibroblasts,does not affect
B2,NCAM-induced neurite outgrowth of PC12-E2 cells grown on NCAM-140-transfected (LBN) fibroblasts,[4],inactive
B3,molecular weight in solution by DLS (oligomeric state),[6],~78 kDa
B4,molecular weight in solution by DLS (oligomeric state),[6],~34 kDa

# Source: patent US7847058B2, “Method of modulating cell survival, differentiation and/or synaptic plasticity” (priority 2003, dated 2010)
